Measurements from ChEMBL document CHEMBL4346733, “Evaluation of amidoxime derivatives as prodrug candidates of potent bis-cationic antimalarials” (Bioorg Med Chem Lett, 2019).

system: not listed separately; experiment: Drug metabolism in human liver microsomes assessed as 1-(4-N-isopropylamidinophenoxy)-8-N-isopropylamidinooctane dihydrochloride formation by measuring retention time of metabolite at 0.5 mM after 2 hrs by HPLC-UV analysis; type: ADME, Microsome; details: 500 µM

Retention_time | SMILES
10 min | Br.Br.CC(C)N/C(=N\O)c1ccc(OCCCCCCCC/C(=N\O)NC(C)C)cc1

system: not listed separately; experiment: Drug metabolism in human liver microsomes assessed as 1-(4-Amidinophenoxy)-8-amidinooctane dihydrochloride formation by measuring retention time of metabolite at 0.5 mM after 2 hrs by HPLC-UV analysis; type: ADME, Microsome; details: 500 µM

Retention_time | SMILES
17.3 min | Br.Br.N/C(=N\O)c1ccc(OCCCCCCCC/C(N)=N\O)cc1

system: not listed separately; experiment: Retention time of compound in human liver microsomes at 0.5 mM after 2 hrs HPLC-UV analysis; type: ADME, Microsome; details: 500 µM

Retention_time | SMILES
15.6 min | Br.Br.N/C(=N\O)c1ccc(OCCCCCCCC/C(N)=N\O)cc1
13.3 min | Br.Br.CC(C)N/C(=N\O)c1ccc(OCCCCCCCC/C(=N\O)NC(C)C)cc1
12.3 min | Br.Br.O/N=C(/c1ccc(OCCCCCCCC/C(=N\O)N2CCCC2)cc1)N1CCCC1

Further lines, the compound ahead of its results:

SMILES | Retention_time
N=C(N)c1ccc(OCCCCCOc2ccc(C(=N)N)cc2)cc1 [PENTAMIDINE] | 25.1 min
N/C(=N\O)c1ccc(OCCCCCOc2ccc(/C(N)=N/O)cc2)cc1 [PENTAMIDINE DAO] | 29 min

system: not listed separately; experiment: Stability of compound in human plasma at 1000 ug/ml up to 120 mins by HPLC-UV analysis; type: ADME, cell-free; details: 2 h

Stability | SMILES
Stable | Br.Br.N/C(=N\O)c1ccc(OCCCCCCCC/C(N)=N\O)cc1
Stable | N/C(=N\O)c1ccc(OCCCCCOc2ccc(/C(N)=N/O)cc2)cc1 [PENTAMIDINE DAO]
Stable | Br.Br.CC(C)N/C(=N\O)c1ccc(OCCCCCCCC/C(=N\O)NC(C)C)cc1
Stable | Br.Br.O/N=C(/c1ccc(OCCCCCCCC/C(=N\O)N2CCCC2)cc1)N1CCCC1

system: Plasmodium vinckei petteri; experiment: Antimalarial activity against Plasmodium vinckei petteri 279BY infected in Swiss mouse assessed as reduction in parasitemia administered once daily via oral gavage starting from day 1 to day 4 post infection measured on day 5 Giemsa staining based flow cytometric analysis; type: functional; details: not given

SMILES | ED50
COc1cccc(/C(=N/O)NCCCCCCCCCCCCN/C(=N\O)c2cccc(OC)c2)c1 | > 90 mg/kg
Cl.Cl.N=C(N)CCCCCCCCOc1ccc(C(=N)N)cc1 | > 90 mg/kg
CO/N=C(\NCCCCCCCCCCCCN/C(=N\OC)c1cccc(OC)c1)c1cccc(OC)c1 | > 90 mg/kg
Br.Br.N/C(=N\O)c1ccc(OCCCCCCCC/C(N)=N\O)cc1 | > 180 mg/kg
Cc1c(CCO)sc[n+]1CCCCCCCCCCCOc1ccc(/C(N)=N/O)cc1.[Br-] | > 90 mg/kg
Br.Br.CC(C)N/C(=N\O)c1ccc(OCCCCCCCC/C(=N\O)NC(C)C)cc1 | > 180 mg/kg
Cl.Cl.N=C(CCCCCCCCOc1ccc(C(=N)N2CCCC2)cc1)N1CCCC1 | 51 mg/kg
COCCc1sc[n+](CCCCCCCCCCCOc2ccc(/C(N)=N/O)cc2)c1C.[Br-] | > 90 mg/kg
Br.Br.O/N=C(/c1ccc(OCCCCCCCC/C(=N\O)N2CCCC2)cc1)N1CCCC1 | > 100 mg/kg

system: not listed separately; experiment: Drug metabolism in human liver microsomes assessed as disappearance of parent compound at 0.5 mM after 2 hrs by HPLC-UV analysis; type: ADME, Microsome; details: read-out: Drug metabolism

metabolised at 2 h, 500 µM | SMILES
7% | Br.Br.N/C(=N\O)c1ccc(OCCCCCCCC/C(N)=N\O)cc1
6% | Br.Br.CC(C)N/C(=N\O)c1ccc(OCCCCCCCC/C(=N\O)NC(C)C)cc1
14% | Br.Br.O/N=C(/c1ccc(OCCCCCCCC/C(=N\O)N2CCCC2)cc1)N1CCCC1

Further lines, the compound ahead of its results:

SMILES | metabolised at 2 h, 500 µM
N=C(N)c1ccc(OCCCCCOc2ccc(C(=N)N)cc2)cc1 [PENTAMIDINE] | 82%
N/C(=N\O)c1ccc(OCCCCCOc2ccc(/C(N)=N/O)cc2)cc1 [PENTAMIDINE DAO] | 3%

system: not listed separately; experiment: Drug metabolism in human liver microsomes assessed as 1-(4-N-isopropylamidinophenoxy)-8-N-isopropylamidinooctane dihydrochloride formation by measuring disappearance of parent compound at 0.5 mM after 2 hrs by HPLC-UV analysis; type: ADME, Microsome; details: 500 µM

Drug metabolism | SMILES
90% | Br.Br.CC(C)N/C(=N\O)c1ccc(OCCCCCCCC/C(=N\O)NC(C)C)cc1

system: Plasmodium vinckei petteri; experiment: Antimalarial activity against Plasmodium vinckei petteri 279BY infected in Swiss mouse assessed as reduction in parasitemia administered once daily via intraperitoneal route starting from day 1 to day 4 post infection measured on day 5 Giemsa staining based flow cytometric analysis; type: functional; details: ip

SMILES | ED50
COc1cccc(/C(=N/O)NCCCCCCCCCCCCN/C(=N\O)c2cccc(OC)c2)c1 | > 20 mg/kg
Cl.Cl.N=C(N)CCCCCCCCOc1ccc(C(=N)N)cc1 | 9 mg/kg
CO/N=C(\NCCCCCCCCCCCCN/C(=N\OC)c1cccc(OC)c1)c1cccc(OC)c1 | > 20 mg/kg
Br.Br.N/C(=N\O)c1ccc(OCCCCCCCC/C(N)=N\O)cc1 | > 10 mg/kg
Cc1c(CCO)sc[n+]1CCCCCCCCCCCOc1ccc(/C(N)=N/O)cc1.[Br-] | > 20 mg/kg
Br.Br.CC(C)N/C(=N\O)c1ccc(OCCCCCCCC/C(=N\O)NC(C)C)cc1 | > 20 mg/kg
Cl.Cl.N=C(CCCCCCCCOc1ccc(C(=N)N2CCCC2)cc1)N1CCCC1 | 1.4 mg/kg
COCCc1sc[n+](CCCCCCCCCCCOc2ccc(/C(N)=N/O)cc2)c1C.[Br-] | 8.8 mg/kg
Br.Br.O/N=C(/c1ccc(OCCCCCCCC/C(=N\O)N2CCCC2)cc1)N1CCCC1 | 10 mg/kg

system: Plasmodium falciparum; experiment: Antimalarial activity against chloroquine-sensitive Plasmodium falciparum Nigerian infected in human blood after 48 hrs by [3H]-hypoxanthine incorporation assay; type: functional, organism-based; details: not given

IC50 | SMILES
51.5 nM | Cl.Cl.N=C(N)CCCCCCCCOc1ccc(C(=N)N)cc1
2000 nM | Br.Br.N/C(=N\O)c1ccc(OCCCCCCCC/C(N)=N\O)cc1
315 nM | Cc1c(CCO)sc[n+]1CCCCCCCCCCCOc1ccc(/C(N)=N/O)cc1.[Br-]
16 nM | Cl.Cl.N=C(CCCCCCCCOc1ccc(C(=N)N2CCCC2)cc1)N1CCCC1
530 nM | COCCc1sc[n+](CCCCCCCCCCCOc2ccc(/C(N)=N/O)cc2)c1C.[Br-]

system: not listed separately; experiment: Stability of compound in human blood at 1000 ug/ml up to 120 mins by HPLC-UV analysis; type: ADME, tissue-based; details: 2 h

Stability | SMILES
Stable | Br.Br.N/C(=N\O)c1ccc(OCCCCCCCC/C(N)=N\O)cc1
Stable | N/C(=N\O)c1ccc(OCCCCCOc2ccc(/C(N)=N/O)cc2)cc1 [PENTAMIDINE DAO]
Stable | Br.Br.CC(C)N/C(=N\O)c1ccc(OCCCCCCCC/C(=N\O)NC(C)C)cc1
Stable | Br.Br.O/N=C(/c1ccc(OCCCCCCCC/C(=N\O)N2CCCC2)cc1)N1CCCC1

system: not listed separately; experiment: Retention time of compound at 0.05 mg/ml by HPLC analysis; type: physicochemical; details: not given

Retention_time | SMILES
12.9 min | Cl.Cl.N=C(N)CCCCCCCCOc1ccc(C(=N)N)cc1
11.5 min | Br.Br.N/C(=N\O)c1ccc(OCCCCCCCC/C(N)=N\O)cc1
13.1 min | Br.Br.CC(C)N/C(=N\O)c1ccc(OCCCCCCCC/C(=N\O)NC(C)C)cc1
12.6 min | Br.Br.O/N=C(/c1ccc(OCCCCCCCC/C(=N\O)N2CCCC2)cc1)N1CCCC1

The remaining lines, values behind:

SMILES | Retention_time
N=C(N)c1ccc(OCCCCCOc2ccc(C(=N)N)cc2)cc1 [PENTAMIDINE] | 25.4 min
N/C(=N\O)c1ccc(OCCCCCOc2ccc(/C(N)=N/O)cc2)cc1 [PENTAMIDINE DAO] | 22.3 min
Cl.Cl.N=C(CCCCCCCCOc1ccc(C(=N)N2CCCC2)cc1)N1CCCC1 | 11.8 min

system: not listed separately; experiment: Drug metabolism in human liver microsomes assessed as 1-(4-N-pyrrolidinylamidinophenoxy)-8-N-pyrrolidinylamidinooctane dihydrochloride formation by measuring retention time of metabolite at 0.5 mM after 2 hrs by LC-MS analysis; type: ADME, Microsome; details: 500 µM

Retention_time | SMILES
11.8 min | Br.Br.O/N=C(/c1ccc(OCCCCCCCC/C(=N\O)N2CCCC2)cc1)N1CCCC1

system: not listed separately; experiment: Drug metabolism in human liver microsomes assessed as monoamidine-1 formation by measuring retention time of metabolite at 0.5 mM after 2 hrs by HPLC-UV analysis; type: ADME, Microsome; details: 500 µM

Retention_time | SMILES
16.5 min | Br.Br.N/C(=N\O)c1ccc(OCCCCCCCC/C(N)=N\O)cc1
12.1 min | Br.Br.CC(C)N/C(=N\O)c1ccc(OCCCCCCCC/C(=N\O)NC(C)C)cc1
